{"source": "paper PMC5400620", "about": "“Preclinical therapeutic efficacy of a novel blood-brain barrier-penetrant dual PI3K/mTOR inhibitor with preferential response in PI3K/PTEN mutant glioma” (Oncotarget, 2017)", "key": {"[1]": {"target": "p110β (Homo sapiens, UniProt P42338)", "sequence (P42338 whole entry)": "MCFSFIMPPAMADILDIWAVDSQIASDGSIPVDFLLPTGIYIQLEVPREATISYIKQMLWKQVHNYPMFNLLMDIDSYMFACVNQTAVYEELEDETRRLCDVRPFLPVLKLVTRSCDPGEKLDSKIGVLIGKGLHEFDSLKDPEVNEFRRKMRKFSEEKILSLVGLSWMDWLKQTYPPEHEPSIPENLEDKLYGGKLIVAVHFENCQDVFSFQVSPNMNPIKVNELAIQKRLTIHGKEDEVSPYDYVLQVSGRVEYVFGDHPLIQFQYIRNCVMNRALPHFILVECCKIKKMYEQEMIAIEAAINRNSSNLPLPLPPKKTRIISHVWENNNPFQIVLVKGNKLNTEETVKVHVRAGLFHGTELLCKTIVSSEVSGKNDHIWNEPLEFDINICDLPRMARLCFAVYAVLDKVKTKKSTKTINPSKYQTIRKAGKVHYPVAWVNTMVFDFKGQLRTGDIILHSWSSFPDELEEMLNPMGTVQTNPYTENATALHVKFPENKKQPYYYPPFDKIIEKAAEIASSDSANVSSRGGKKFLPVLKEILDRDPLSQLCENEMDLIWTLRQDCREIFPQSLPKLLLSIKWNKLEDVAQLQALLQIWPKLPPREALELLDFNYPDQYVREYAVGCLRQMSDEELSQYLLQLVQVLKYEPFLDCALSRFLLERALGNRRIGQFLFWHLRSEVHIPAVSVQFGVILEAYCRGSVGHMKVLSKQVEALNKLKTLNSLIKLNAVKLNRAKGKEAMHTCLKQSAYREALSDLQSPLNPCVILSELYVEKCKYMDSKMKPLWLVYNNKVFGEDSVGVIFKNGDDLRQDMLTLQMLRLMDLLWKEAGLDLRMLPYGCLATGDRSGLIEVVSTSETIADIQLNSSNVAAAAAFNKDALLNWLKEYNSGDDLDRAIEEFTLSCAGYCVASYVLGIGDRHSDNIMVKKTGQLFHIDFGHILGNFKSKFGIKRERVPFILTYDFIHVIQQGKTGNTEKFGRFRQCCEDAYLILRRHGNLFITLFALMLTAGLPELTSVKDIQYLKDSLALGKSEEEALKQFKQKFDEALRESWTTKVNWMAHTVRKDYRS", "sequence (P27986 whole entry partner)": "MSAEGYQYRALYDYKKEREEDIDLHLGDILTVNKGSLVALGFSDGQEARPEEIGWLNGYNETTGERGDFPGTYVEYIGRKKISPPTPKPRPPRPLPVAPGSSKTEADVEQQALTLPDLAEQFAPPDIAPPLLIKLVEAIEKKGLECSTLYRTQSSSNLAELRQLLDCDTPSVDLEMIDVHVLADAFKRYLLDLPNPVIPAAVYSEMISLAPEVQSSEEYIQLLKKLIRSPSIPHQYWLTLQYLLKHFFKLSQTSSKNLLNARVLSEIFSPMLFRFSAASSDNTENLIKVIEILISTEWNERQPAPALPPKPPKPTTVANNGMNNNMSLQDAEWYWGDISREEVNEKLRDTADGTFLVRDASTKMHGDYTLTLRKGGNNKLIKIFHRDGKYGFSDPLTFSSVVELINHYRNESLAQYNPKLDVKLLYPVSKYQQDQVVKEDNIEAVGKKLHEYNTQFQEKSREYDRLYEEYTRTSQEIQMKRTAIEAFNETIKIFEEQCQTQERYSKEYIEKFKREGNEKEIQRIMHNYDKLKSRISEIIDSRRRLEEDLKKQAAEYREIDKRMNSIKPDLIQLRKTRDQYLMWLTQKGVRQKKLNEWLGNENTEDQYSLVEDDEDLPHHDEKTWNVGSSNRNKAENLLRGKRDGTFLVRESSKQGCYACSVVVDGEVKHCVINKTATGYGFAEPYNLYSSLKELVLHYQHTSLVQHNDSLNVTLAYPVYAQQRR", "test": "class I PI3K HTRF assay, p110β", "type": "biochemical", "experimental": "(§1) DS7423 inhibits PI3K/mTOR activity likely binding to the ATP binding cleft of these enzymes and was tested against class I PI3K and other kinases using an HTRF assay format and direct measurement of substrate phosphorylation, respectively."}, "[2]": {"target": "mixed lineage kinase 1 (MLK1) (Homo sapiens, UniProt P80192)", "sequence (P80192 whole entry)": "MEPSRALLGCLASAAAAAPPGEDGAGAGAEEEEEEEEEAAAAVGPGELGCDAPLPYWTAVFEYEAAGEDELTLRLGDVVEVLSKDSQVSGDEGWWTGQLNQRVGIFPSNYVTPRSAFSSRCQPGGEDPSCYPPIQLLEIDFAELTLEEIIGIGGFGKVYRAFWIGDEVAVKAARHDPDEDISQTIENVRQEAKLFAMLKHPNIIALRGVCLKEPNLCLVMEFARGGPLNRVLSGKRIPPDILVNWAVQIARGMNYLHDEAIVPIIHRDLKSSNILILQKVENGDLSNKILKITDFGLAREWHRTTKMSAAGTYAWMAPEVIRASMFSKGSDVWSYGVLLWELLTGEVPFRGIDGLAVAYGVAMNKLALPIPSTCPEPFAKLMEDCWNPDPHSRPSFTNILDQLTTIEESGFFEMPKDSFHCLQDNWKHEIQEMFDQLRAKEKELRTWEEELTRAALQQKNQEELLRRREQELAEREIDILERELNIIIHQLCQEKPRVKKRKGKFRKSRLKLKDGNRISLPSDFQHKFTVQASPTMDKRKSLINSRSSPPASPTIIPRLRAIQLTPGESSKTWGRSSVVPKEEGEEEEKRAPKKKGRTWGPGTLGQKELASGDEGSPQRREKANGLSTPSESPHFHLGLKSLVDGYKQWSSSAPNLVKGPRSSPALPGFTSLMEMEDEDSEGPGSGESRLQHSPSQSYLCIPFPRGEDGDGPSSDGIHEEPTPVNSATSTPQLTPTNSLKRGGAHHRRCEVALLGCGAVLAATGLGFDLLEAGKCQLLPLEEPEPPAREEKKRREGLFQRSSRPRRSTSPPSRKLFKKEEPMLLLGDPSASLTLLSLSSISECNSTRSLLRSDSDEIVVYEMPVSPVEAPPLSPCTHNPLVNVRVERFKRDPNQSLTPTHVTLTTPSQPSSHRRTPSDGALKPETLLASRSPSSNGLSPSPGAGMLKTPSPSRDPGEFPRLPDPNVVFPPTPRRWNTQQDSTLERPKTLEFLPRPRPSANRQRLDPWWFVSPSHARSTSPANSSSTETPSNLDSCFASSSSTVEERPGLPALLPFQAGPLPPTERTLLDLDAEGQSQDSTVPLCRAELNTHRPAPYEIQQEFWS", "test": "kinase panel, direct measurement of substrate phosphorylation, MLK1", "type": "biochemical", "conditions": "panel of 227 kinases; test concentration not given", "experimental": "as §1"}, "[3]": {"tested_on": "panel of 227 kinases", "test": "representative panel of 227 kinases in biochemical assays", "conditions": "greater than 50% inhibition only against 2 other kinases", "experimental": "as §1"}, "[4]": {"test": "pharmacokinetic study in mice, plasma and brain concentrations by LC-MS/MS", "type": "in vivo, nude mice", "experimental": "We studied the plasma concentration-time profile of DS following a single PO administration (6 mg/kg) in mice (Figure 1). Plasma concentrations remained generally constant and higher than 2 μmol/L up to 6 hours after treatment. The brain-to-plasma ratio of total concentrations remained unchanged and was approximately 0.1 between 1 and 6 hours after treatment (Figure 1A and 1B). Both plasma and brain DS concentrations decreased at 24 hours after treatment.\n(§2) Figure 1 A. and B. Plasma and brain concentration-time profile of DS7423 following a single PO administration (6 mg/kg) to nude mice. C. Western blot of mouse brains probed with antibodies against pAkt (Ser473) and pS6 (Ser235/236) in a time profile similar to that shown in A and B. Results are presented as the mean ± SE of six animals in each group.\nMice were implanted with U87 cells intracranially as described previously. Twenty-one days after injection of the tumor cells,mice were randomized into groups. Mice were given a 6 mg/kg oral (PO) dose of DS. Blood samples of approximately 0.15 mL were collected from mice (n = 4 mice per time point) by retro-orbital bleeding in tubes containing K2EDTA as the anticoagulant pre-dose and at 2, 4, 6, and 24 hours post-dose. Plasma was collected and stored at −80°C until analysis. DS concentrations were determined by liquid chromatography-tandem mass spectrometry (LC-MS/MS) following plasma protein precipitation with acetonitrile and injection of the supernatant onto a TSK-GEL ODS-100V column (150 mm × 2 mm, 5 μm particle size). A Shimadzu 10A system (Shimadzu Corp., Kyoto, Japan) coupled with an AB Sciex API4000 triple-quadrupole mass spectrometer (Applied Biosystems, Foster City, CA) was used for the LC-MS/MS assay. […] DS and its internal standard ([^2H8]DS) were analyzed in the multiple reaction monitoring mode using the mass transitions of m/z 521→479 and 529→487, respectively. The lower and upper limits of quantitation were 2 and 5000-ng/mL10 μmol/L, respectively. […] For DS quantitation, mouse brains were homogenized in 3 volumes of 50% acetonitrile. […]"}, "[5]": {"tested_on": "U87 glioma cells", "test": "U87 orthotopic intracranial xenograft efficacy", "type": "in vivo", "from_the_text": "(§3) Figure 4 DS7423 suppressed tumor growth and prolonged survival in an orthotopic mouse xenograft model U87 glioma cells U87 and GSC11 GICs were used to generate orthotopic xenografts in mouse brains. Tumor-bearing mice received either vehicle or DS7423 at the indicated dose/schedules. Two mice were killed at the indicated time points (2 weeks and 4 weeks) after DS treatment. A. and B. Kaplan–Meier survival plots of tumor-bearing mice in vehicle or DS7423 treatment groups (n = 10). The log-rank method was used to test for a difference between groups. […] Bar, 100 μm.\n(§4) 6 to 8-week-old male nude mice were obtained from the MD Anderson breeding facility and used in accordance with the Animal Care and Use Guidelines of MD Anderson Cancer Center. In this study, 5 × 10^5 U87 (PTEN mutant) cells in DMEM/F12 serum-free media (5 μL) and GSC11 (PIK3CA mutant and PTEN mutant) were implanted intracranially into each mouse using a guide-screw system, as described previously. Four days after injection of the tumor cells, mice were randomized into 2 groups (10 animals per group). Mice in-group 1 was given 6 mg/kg DS7423 via oral gavage, and mice in-group 2 were given the vehicle (0.5% methyl cellulose) used for administration of DS (control). […] Mice were monitored daily and euthanized when they became moribund. […]"}, "[6]": {"tested_on": "GSC11 GICs", "test": "GSC11 orthotopic intracranial xenograft efficacy", "type": "in vivo, nude mice", "conditions": "GSC11 tumor-bearing mice, 6 mg/kg oral; control 47 days; P=0.014", "from_the_text": "as §3, §4"}, "[7]": {"tested_on": "U87 GFP-LC3 cells", "test": "GFP-LC3 puncta detection (autophagy)", "type": "cell-based, human", "conditions": "TMZ 125 μM, DS 100 nM, control 2%", "from_the_text": "To investigate the effects of DS, TMZ, or the TMZ/DS combination on autophagy in glioma cells, we transfected cells with GFP-LC3 constructs in addition to various drug treatment and control treatment regimens and examined the accumulation of punctate GFP-LC3 structures using fluorescence microscopy. During autophagy, LC3-II relocalizes to the autophagosomal membranes. Thus, the accumulation of GFP-LC3 puncta provides an effective way to detect autophagosomes. In control cells, GFP-LC3 punctate structures were not detected, but large numbers of GFP-LC3 punctate structures were found in cells treated with DS or TMZ (Figure 5C). […] Strikingly, the combination of DS and TMZ further induced autophagy in up to 50% of U87 cells.\nU87 GFP-LC3 cells were analyzed by using a fluorescence microscope, and the percentage of cells displaying GFP-LC3-positive puncta was quantified by counting 5 random fields in 3 independent experiments."}, "[8]": {"tested_on": "PI3K/mTOR signaling (pAkt, pS6)", "test": "pAkt and pS6 in U87 tumors or brain after a single PO dose", "type": "in vivo, mice", "conditions": "single PO dose 6 mg/kg, compared with untreated animals", "experimental": "as §2\nTo correlate DS brain concentration with the modulation of PI3K/mTOR signaling in U87 tumors, we used immunohistochemical analysis to study the signaling alterations in tumor sections derived from mice at similar time points following a single PO dose of DS (6 mg/kg). Tissue sections were probed with antibodies against pAkt and pS6. […] DS plasma and brain concentrations decreased after 24 hours, which correlated with an increase in pAkt and pS6."}}, "data": [{"smiles": "CC(=O)N1CCN(c2nc3c(N4CCOCC4)nc(-c4cnc(N)nc4)nc3n2CC(F)(F)F)C[C@H]1C", "note": "[DS, 1-{(2R)-4-[2-(2-Aminopyrimidin-5-yl)-6-(morpholin-4-yl)-9-(2,2,2-trifluoroethyl)-9H-purin-8-yl]-2-methylpiperazin-1-yl}ethan-1-one]", "values": [{"measurement": "IC50", "setting": "[1]", "result": 1140, "unit": "nM"}, {"measurement": "inhibition of MLK1", "setting": "[2]", "result": "greater than 50%"}, {"measurement": "inhibition of a representative panel of 227 kinases", "setting": "[3]", "result": "poorly inhibited"}, {"measurement": "concentration achievable in the mouse brains", "setting": "[4]", "result": 200, "unit": "nM"}, {"measurement": "Kp at 6 h", "setting": "[4]; nude, mouse, brain and plasma, single PO 6 mg/kg, between 1 and 6 hours after treatment, read-out: brain-to-plasma ratio of total concentrations", "result": "~0.1"}, {"measurement": "plasma concentration", "setting": "[4]; single PO 6 mg/kg, up to 6 hours after treatment", "result": "higher than 2 μmol/L"}, {"measurement": "median survival time", "setting": "[5]; U87 tumor-bearing mice, 6 mg/kg oral, control 30 days, P=0.025", "result": 46, "unit": "days"}, {"measurement": "toxic effects in mice with intracranial xenograft tumors", "setting": "[5]; treated mice", "result": "without causing any obvious toxic effects"}, {"measurement": "median survival", "setting": "[6]", "result": 61, "unit": "days"}, {"measurement": "cells with induced autophagy (GFP-LC3 puncta)", "setting": "[7]", "result": 30, "unit": "%"}, {"measurement": "pAkt and pS6 staining in U87 tumors", "setting": "[8]", "result": "marked reduction"}]}]}
